The source of these data is patent publication US20200289482A1, “CYSTIC FIBROSIS TRANSMEMBRANE CONDUCTANCE REGULATOR MODULATORS FOR TREATING AUTOSOMAL DOMINANT POLYCYSTIC KIDNEY DISEASE” (The Johns Hopkins University, priority 2017, published 2020).

The subject of assay [1] is AC3. Kind of assay: Western blot of adenylyl cyclase 3 expression. Type of assay: cell-based, mouse. Conditions: PN cells treated with VX-809. As for the experimental part:
FIG. 4A, FIG. 4B, FIG. 4C, FIG. 4D, and FIG. 4E show (FIG. 4A-FIG. 4B) cAMP levels are reduced by VX-809. (FIG. 4A) cAMP levels in mouse tissue were reduced by VX-809. The kidney samples (n=6) analyzed were taken from those depicted in FIG. 1. (FIG. 4B) Confluent PN and PH cells were treated with VX-809 (10 μM) or DMSO for 16 h and then treated with forskolin (100 μM) for 30 min before the cells were harvested for the assay. Columns represent means±SEM. Statistical analysis was performed using a two-tailed Student's t-test. Each set of data is from three individual wells; Note that resting cAMP is greater in PN vs PH cells as previously shown (25). Also note that forskolin caused a large increase in cAMP. A smaller increase occurred with IBMX. However, the increase induced by forskolin alone was similar to that by IBMX plus forskolin. […] (FIG. 4C, FIG. 4D, and FIG. 4E) Adenylyl cyclase expression. (FIG. 4C) Western blot showing the expression of adenylyl cyclase (AC) 6 and AC3 in treated and control PN cells. (FIG. 4D-FIG. 4E) Columns represent means±SEM of the AC3 and AC6 expression. The data were analyzed by non-parametric t-test. The experiment was repeated four times. For all graphs, *P<0.05, **P<0.01, and ***P<0.001;
There are two classes of adenylyl cyclases that are regulated by intracellular Ca^2+: one class is activated, and the other inhibited. […]

Assay [2] has as its system Hsp70. Kind of assay: Western blot of Hsp70 in kidney tissue lysates. Type of assay: in vivo, mouse. Conditions: cyst induced pkd−/− mice, VX-809 30 mg/kg BW. As for the experimental part:
FIG. 7A, FIG. 7B, FIG. 7C, FIG. 7D, FIG. 7E, and FIG. 7F show chaperone expression is altered in mice by VX-809. (FIG. 7A-FIG. 7B) Representative Western blot images of HSP27, 70, 90 and HSP40 in lysates of kidney tissue from no cyst induced (ND), cyst induced with Doxycycline (D) or cyst induced pkd−/− mice treated with VX-809 (D+VX-809) 30 mg/kg BW. (FIG. 7C, FIG. 7D, FIG. 7E, and FIG. 7F) Columns represent averages±standard errors of HSP27, 70, 90 and HSP40 expression. Data were analyzed by non-parametric t-test. n=4 for each treated and control groups. Black lines between lanes represent representative experiments from the same gel. *P<0.05; **P<0.01; To facilitate their growth in the kidney, cysts have developed an altered network of proteins that most likely serves to protect them from stress (34). Next, it was determined whether VX-809 would alter the levels of Hsps in pkd−/− mice and in PN cells. […] Hsp 27, 70 and 90 are all elevated in cystic kidneys compared to normal controls. […] There is no change in Hsp 40. […] Both sets of data are consistent with an alteration in the heat shock response to cyst growth.
In general terms: In western blotting, separated proteins are transferred to a membrane and probed.

Assay [3] concerns GADD153. Kind of assay: Immunostaining for GADD153 in mouse kidney sections. Format: in vivo. As to conditions: PN21 mice, VX-809 vs DMSO. The source says: FIG. 12A, FIG. 12B, and FIG. 12C show GADD153 expression in kidneys of Pkd1^fl/fl; Pax8^rtTA; TetO-cre mice. Immunoflourescence images representing the GADD expression (green) in DMSO (FIG. 12A) or VX-809 (FIG. 12B) treated PN21 Pkd1^fl/fl in mouse. Columns (FIG. 12C) represent % area of GADD immunopositive (green) cells in DMSO or VX-809 treated PN21 Pkd1^fl/fl in mouse kidney sections. Data are expressed as mean 1+1 SEM of DMSO (vehicle)-treated (n=4) and VX-809-treated (n=4) mice. Statistical analysis was performed using a 2-tailed Student t-test. DMSO, dimethyl sulfoxide. Kidneys were fixed in 4% paraformaldehyde as described (62). Used here was the GADD153 antibody (Sc-7351), goat antirabbit (A21429, AlexaFluor 555, 1:1,000; Life Technologies, Carlsbad, Calif.) and DAPI (H-1200; Vector Laboratories, Burlingame, Calif.). […] Cells positive for GADD153 and the total number of cells were measured with ImageJ. The results are expressed as percentages;
Given that VX-809 alters an ensemble of Hsps, it was evaluated whether VX-809 alters proteins associated with ER stress. To address this question, the levels of three ER stress-associated proteins were measured, 78-kDa glucose-regulated protein (GRP78), ER oxidoreductin 1 (Ero1) and DNA damage-inducible protein 3 (GADD153), also known as C/EBP homologous protein (CHOP) (37). […]

For assay [4], the target named is CFTR (Mus musculus, UniProt P26361). In words: CFTR expression in PN cells. The arrangement: endogenous in cells; host or cells: PN (Pkd1-null mouse proximal tubule) cells. Format: cell-based. Conditions: 10 μM VX-809 for 16 h vs control PN cells. Here is the method: FIG. 19A, FIG. 19B, FIG. 19C, and FIG. 19D show CFTR expression in PN cells treated with VX-809 (10 μM) for 16 h.
Sequence of CFTR (P26361 whole entry): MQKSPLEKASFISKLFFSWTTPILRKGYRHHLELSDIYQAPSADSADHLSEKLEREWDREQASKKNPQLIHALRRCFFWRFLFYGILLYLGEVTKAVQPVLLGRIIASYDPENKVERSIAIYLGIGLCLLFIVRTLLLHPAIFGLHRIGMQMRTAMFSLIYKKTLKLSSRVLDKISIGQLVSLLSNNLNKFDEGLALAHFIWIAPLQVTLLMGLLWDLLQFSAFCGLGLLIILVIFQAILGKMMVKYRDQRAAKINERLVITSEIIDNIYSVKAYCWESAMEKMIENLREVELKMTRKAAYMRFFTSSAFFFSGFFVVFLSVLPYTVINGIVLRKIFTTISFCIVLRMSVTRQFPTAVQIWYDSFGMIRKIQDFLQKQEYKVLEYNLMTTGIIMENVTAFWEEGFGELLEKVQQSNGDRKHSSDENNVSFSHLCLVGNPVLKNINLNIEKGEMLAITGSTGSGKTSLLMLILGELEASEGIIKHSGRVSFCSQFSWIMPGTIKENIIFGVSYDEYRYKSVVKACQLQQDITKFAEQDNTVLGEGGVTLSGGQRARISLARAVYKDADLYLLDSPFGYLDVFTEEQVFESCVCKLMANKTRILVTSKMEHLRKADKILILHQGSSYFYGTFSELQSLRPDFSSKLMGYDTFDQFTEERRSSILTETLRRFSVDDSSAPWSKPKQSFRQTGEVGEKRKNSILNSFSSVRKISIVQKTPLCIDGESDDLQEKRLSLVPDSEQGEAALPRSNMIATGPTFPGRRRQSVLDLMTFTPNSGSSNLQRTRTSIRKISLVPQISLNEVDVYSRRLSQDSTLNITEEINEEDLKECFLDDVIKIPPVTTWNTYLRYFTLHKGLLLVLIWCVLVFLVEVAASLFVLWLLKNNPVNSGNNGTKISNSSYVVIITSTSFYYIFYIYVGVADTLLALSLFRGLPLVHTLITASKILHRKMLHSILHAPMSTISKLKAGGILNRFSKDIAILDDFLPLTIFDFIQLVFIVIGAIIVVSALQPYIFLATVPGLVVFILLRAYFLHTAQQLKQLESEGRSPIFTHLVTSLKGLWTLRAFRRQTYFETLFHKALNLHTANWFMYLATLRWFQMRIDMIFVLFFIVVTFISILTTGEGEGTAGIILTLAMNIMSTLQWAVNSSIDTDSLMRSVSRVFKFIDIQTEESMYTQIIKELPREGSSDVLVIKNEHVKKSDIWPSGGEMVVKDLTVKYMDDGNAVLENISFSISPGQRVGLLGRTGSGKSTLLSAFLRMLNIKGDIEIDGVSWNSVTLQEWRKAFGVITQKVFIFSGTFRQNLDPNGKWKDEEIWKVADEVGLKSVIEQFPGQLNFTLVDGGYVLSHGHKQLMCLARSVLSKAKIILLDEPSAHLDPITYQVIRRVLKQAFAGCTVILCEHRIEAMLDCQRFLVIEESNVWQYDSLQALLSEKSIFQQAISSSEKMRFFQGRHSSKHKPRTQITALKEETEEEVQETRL
The expression of CFTR was evaluated in PN cells treated with VX-809 and control PN cells. PN cells were treated with 10 μM VX-809 for 16 h or a control.

On to lumacaftor [VX-809], for which the AC3 levels result in assay [1] is given as “decreased”. Besides, the “Hsp70 expression in kidneys” value in assay [2] is given as “significantly less expression”. Besides, the “GADD153 immunostaining in kidneys” value in assay [3] is reported as “strong reduction”. In assay [4], the CFTR expression result is “enhanced CFTR expression”.
